Tests used:
RNR = target: T1, RNR (Homo sapiens, UniProt P23921+P31350); conditions: background art; cited from earlier work
T1 sequence (P23921 1-792): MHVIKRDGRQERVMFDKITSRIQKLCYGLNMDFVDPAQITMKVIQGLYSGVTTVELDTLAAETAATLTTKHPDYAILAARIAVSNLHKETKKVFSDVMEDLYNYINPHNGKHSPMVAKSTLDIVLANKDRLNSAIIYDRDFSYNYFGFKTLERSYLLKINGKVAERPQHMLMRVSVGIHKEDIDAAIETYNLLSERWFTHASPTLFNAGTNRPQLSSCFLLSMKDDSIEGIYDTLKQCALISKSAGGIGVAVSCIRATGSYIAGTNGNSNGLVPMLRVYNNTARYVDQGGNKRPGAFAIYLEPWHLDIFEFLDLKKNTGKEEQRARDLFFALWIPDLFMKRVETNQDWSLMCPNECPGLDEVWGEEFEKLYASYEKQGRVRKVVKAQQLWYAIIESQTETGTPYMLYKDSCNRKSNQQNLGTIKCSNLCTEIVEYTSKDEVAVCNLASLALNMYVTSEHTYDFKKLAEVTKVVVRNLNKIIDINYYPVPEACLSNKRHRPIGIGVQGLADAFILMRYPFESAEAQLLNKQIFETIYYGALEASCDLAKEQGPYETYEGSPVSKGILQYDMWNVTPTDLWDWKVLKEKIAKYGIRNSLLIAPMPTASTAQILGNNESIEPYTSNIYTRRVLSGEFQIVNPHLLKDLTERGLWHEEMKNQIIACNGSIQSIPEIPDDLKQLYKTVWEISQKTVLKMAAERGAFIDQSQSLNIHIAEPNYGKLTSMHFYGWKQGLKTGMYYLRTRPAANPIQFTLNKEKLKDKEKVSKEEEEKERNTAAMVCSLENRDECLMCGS
T1 sequence (P31350 1-389): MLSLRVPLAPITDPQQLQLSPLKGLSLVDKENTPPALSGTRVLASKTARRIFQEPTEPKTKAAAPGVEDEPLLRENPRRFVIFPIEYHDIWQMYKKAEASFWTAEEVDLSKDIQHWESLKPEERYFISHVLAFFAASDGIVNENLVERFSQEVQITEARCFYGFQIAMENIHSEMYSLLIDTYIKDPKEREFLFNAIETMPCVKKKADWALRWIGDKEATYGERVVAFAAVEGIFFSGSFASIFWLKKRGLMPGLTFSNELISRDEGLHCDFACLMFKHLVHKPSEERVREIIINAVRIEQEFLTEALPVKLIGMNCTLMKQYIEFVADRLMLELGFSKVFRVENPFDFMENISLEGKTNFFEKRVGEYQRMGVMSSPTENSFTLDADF

22 cell lines = experiment: Cell proliferation assay (CellTiter-Glo) and correlation with SLFN11 mRNA expression; format: cell-based; conditions: 10 micro mol/L, 3 days of exposure, Pearson's correlation
Excerpt: The HEL, NUGC-3, and RPMI8226 cell lines were obtained from the Japanese Collection of Research Bioresources. The 786-O, CFPAC-1, DU145, HCC1599, HCC1806, HCC38, HCT116, HL-60, K-562, MSTO-211H, MV-4-11, NCI-H460, NCI-H2170, and THP-1 cell lines were obtained from the ATCC. The A2780 and COLO 792 cell lines were obtained from the European Collection of Authenticated Cell Cultures. The A549, A673, and MCF-7 cell lines were obtained from DS Pharma Biomedical Co., Ltd.
Cell proliferation assay was performed as reported previously (Hasako, S., et al. Mol Cancer Ther 17, 1648-1658 (2018)). Briefly, cells were plated and incubated for 1 day, followed by 3 days of exposure to the compound. After exposure to Compound A, viable cells were detected by using the CellTiter-Glo luminescent cell viability assay (Promega). The experiment was performed in triplicates.
Correlation analysis of SLFN11 expression and Compound A cytotoxicity was performed using Pearson’s correlation coefficient (P < 0.05) in JMP 13 software. The gene expression data of cell lines were available online CCLE (http://www.broadinstitute.org/ccle/home). Compound A cytotoxicity data from 22 cell lines in Table 5 were used for correlation analysis (data for correlation was not shown).

[1] = Body weight change as index of toxicity in MV-4-11 tumor-bearing mice; format: in vivo, male nude mice; conditions: up to Day 15
Method: (§1) Anti-tumor Effect and body weight change in Various Dosing Regimens Human acute myelocytic leukemia (AML) cell line MV-4-11 cells (American Type Culture Collection CRL-9591™) were implanted in the right thorax of male nude mice (CLEA Japan, Inc.). After implantation of the tumor, the major axis (mm) and minor axis (mm) of the tumor were measured, and tumor volume (TV) was calculated for each mouse. Then, the mice were assigned to the following groups, Control group (○), Continuous Dosing Group (●: 100 mg/kg/day; ◊: 150 mg/kg/day) and 1-week ON+1-week OFF Dosing Group (▲: 200 mg/kg/day; ◆: 300 mg/kg/day), so that the average TV of each group was equivalent. The day in which the grouping (n=5) was conducted was taken as Day 0.
5-chloro-2-(N-((1S,2R)-2-(6-fluoro-2,3-dimetylphenyl)-1-(5-oxo-4,5-dihydro-1,3,4-o xadiazol-2-yl)propyl)sulfamoyl)benzamide (Compound A) was suspended in 5 mg/mL hypromellose solution to provide appropriate test samples for 100 mg/kg, 150 mg/kg, 200 mg/kg, and 300 mg/kg dosing regimen. Animals of the Control group were not treated. […]
On the other hand, the body weight (BW) was measured on Days 4, 8, 11 and 15, and the average body weight change (BW change, %) relative to the body weight on Day 0 was calculated by the following formula, as an index of toxicity during the dosing period: BW change (%) = [(BW on Day n) - (BW on Day 0)] / (BW on Day 0) x 100.

A673 cells [2] = experiment: Cell proliferation assay in A673 cells treated with siRNA against SLFN11; format: cell-based; conditions: siSLFN11-1 and siSLFN11-2 vs siControl, 72 h treatment
Method: (§2) A673 cells were transfected with 1 nM siRNAs for 24 h using Lipofectamine® RNAiMAX Reagent (Thermo Fisher Scientific Inc.) and then re-seeded onto a 96-well plate for cell proliferation assay and caspase induction assay and onto dishes for immunoblotting analysis. siRNAs were obtained from Thermo Fisher Scientific Inc. as follows: Silencer® Select Negative Control #1 siRNA (#4390843 used as siControl), SLFN11 Silencer® Select Pre-designed siRNA (#s40703 used as siSLFN11-1, and #s40704 as siSLFN11-2).
Cell proliferation assay was performed as reported previously (Hasako, et al., ibid.). Briefly, cells treated with siRNAs for 24 h were plated onto 96 well plate and incubated for 24 h, followed by 3 days of exposure to the compound. After compound exposure, viable cells were detected by using the CellTiter-Glo luminescent cell viability assay (Promega).

[3] = tested on: Human acute myelocytic leukemia (AML) cell line MV-4-11 cells; experiment: Anti-tumor effect in MV-4-11 xenograft under various dosing regimens; format: in vivo, male nude mice; conditions: for effect of reducing tumor volume (relative tumor volume, RTV): Day 15, vs Control Group
Method: as §1
5-chloro-2-(N-((1S,2R)-2-(6-fluoro-2,3-dimetylphenyl)-1-(5-oxo-4,5-dihydro-1,3,4-o xadiazol-2-yl)propyl)sulfamoyl)benzamide (Compound A) was suspended in 5 mg/mL hypromellose solution to provide appropriate test samples for 100 mg/kg, 150 mg/kg, 200 mg/kg, and 300 mg/kg dosing regimen. Animals of the Control group were not treated.
To mice in the Continuous Dosing Group, 100 mg/kg/day or 150 mg/kg/day of Compound A was orally administered once daily from Day 1 to Day 14. The total dosage for mice in the Continuous Dosing Group administered 100 mg/kg/day (Group C-1) is 1400 mg/kg, and the total dosage for mice in the Continuous Dosing Group administered 150 mg/kg/day (Group C-2) is 2100 mg/kg.
To mice in the 1-week ON+1-week OFF Dosing Group, 200 mg/kg/day or 300 mg/ kg/day of Compound A was orally administered once daily from Day 1 to Day 7, and not administered from Day 8 to Day 14, which corresponds to a resting period of 7 days (1 week) for recovery. The total dosage for mice in the 1-week ON+1-week OFF Dosing Group administered 200 mg/kg/day (Group I-1) is 1400 mg/kg, and the total dosage for mice in the 1-week ON+1-week OFF Dosing Group administered 300 mg/ kg/day (Group I-2) are 2100 mg/kg.
On Days 4, 8, 11 and 15, using the following formula: TV (mm^3) = (major axis x minor axis^2) / 2, relative tumor volume (RTV) was calculated as an index of anti-tumor effect during the dosing period for each group (FIG. 1).

A673 cells [4] = experiment: Caspase induction analysis (Caspase-Glo 3/7) in A673 cells treated with siRNA against SLFN11; format: cell-based; conditions: A673 cells transfected with siRNA against SLFN11, 24 h treatment
Method: as §2
Caspase induction analysis was performed as reported previously (Hasako., et al., ibid). Briefly, the cells with siRNAs for 24 h were seeded onto 96 well plate, incubated for24 h, and then treated with Compound A for 24 h. Caspase induction was detected by using the Caspase-Glo 3/7 assay (Promega). Relative caspase-3/7 activation was calculated by applying the correction with respect to cell number. The experiment was performed in triplicates.

Structure (SMILES) | RNR inhibitory activity (RNR) | correlation between SLFN11 mRNA expression and relative cell growth (%) (22 cell lines) | body weight change (BW change) ([1]; 1-week ON+1-week OFF Dosing Group (Groups I-1 and I-2), 200 or 300 mg/kg/day orally Day 1 to Day 7) | body weight change (BW change) ([1]; Continuous Dosing Group (Groups C-1 and C-2), 100 or 150 mg/kg/day orally Day 1 to Day 14) | cytotoxic effect (cell growth) after SLFN11 knockdown (A673 cells [2]) | effect of reducing tumor volume (relative tumor volume, RTV) ([3]; 1-week ON+1-week OFF Dosing Group, 200 or 300 mg/kg/day orally once daily Day 1 to Day 7, rest Day 8 to Day 14) | effect of reducing tumor volume (relative tumor volume, RTV) ([3]; Continuous Dosing Group, 100 or 150 mg/kg/day orally once daily Day 1 to Day 14) | effect of reducing tumor volume, Group I-1 compared with Group C-1 ([3]; total dosage 1400 mg/kg, I-1 200 mg/kg/day 1-week ON+1-week OFF vs C-1 100 mg/kg/day continuous) | effect of reducing tumor volume, Group I-2 compared with Group C-2 ([3]; total dosage 2100 mg/kg, I-2 300 mg/kg/day 1-week ON+1-week OFF vs C-2 150 mg/kg/day continuous) | caspase-3/7 activation after SLFN11 knockdown (A673 cells [4])
NC(=O)NO [HU, hydroxyurea, reference compound] | weak | – | – | – | – | – | – | – | – | –
Cc1ccc(F)c([C@@H](C)[C@H](NS(=O)(=O)c2ccc(Cl)cc2C(N)=O)c2n[nH]c(=O)o2)c1C [Compound A, 5-chloro-2-(N-((1S,2R)-2-(6-fluoro-2,3-dimetylphenyl)-1-(5-oxo-4,5-dihydro-1,3,4-oxadiazol-2-yl)propyl)sulfamoyl)benzamide] | potent | a significant correlation | shows drastic recovery in body weight | does not show satisfactorily recovery in terms of body weight loss | SLFN11 knockdown significantly suppressed the cytotoxic effect | shows the effect of reducing tumor volume compared with Control Group | shows the effect of reducing tumor volume compared with Control Group | tends to be higher than Group C-1, though the difference is not statistically significant | seems to be similar | suppression of Compound A-induced caspase-3/7 activation
